Where two headings read alike, the source gives them in different places.
Legend:
[1] = cited from earlier work
CYP3A4 [2] = target: T1, CYP3A4 (Homo sapiens, UniProt P08684); settings: cited from earlier work
[3] = cited from earlier work; remark: listed apart in the source
Caco-2 = test system: Caco-2; set-up: method as in earlier work; settings: enzalutamide PBPK model input; cited from earlier work
CYP3A4 [4] = settings: cited from earlier work
CYP3A4 [5] = target: T1, CYP3A4; settings: ipatasertib 100 mg single oral dose with and without itraconazole 200 mg QD, cited from earlier work
[6] = Blood-to-plasma partition ratio and fraction unbound in plasma; assay type: in vitro ADME; settings: mean at concentration from 0.1 to 40 µM, data on file, read-out: fu,plasma
CYP3A4 [7] = target: T1, CYP3A4
Description: (§1) The physiochemical and ADME parameters used for the development of the initial PBPK model are summarized Table S1. […] The volume of distribution at steady state (Vss) was obtained from the clinical absolute bioavailability study (ClinicalTrials.gov Identifier: NCT02390492). A tissue to plasma partition coefficient (Kp) scalar was applied to match the predicted Vss (predicted with in Simcyp using Method 3, Rodgers et al. + ion membrane permeability) to the observed value. The IV clearance determined in the clinical absolute bioavailability study was used (ClinicalTrials.gov Identifier: NCT02390492). […] The CYP3A4 inhibition parameters for competitive inhibition and TDI determined using in vitro assays (Data on file) were incorporated into the model.
(§2) The age range of 37–76 and the proportion of females of 0.69 were used in the simulation.

[8] = cited from earlier work; for Observed AUC0-∞ / Observed AUC0-24: geometric mean (CV%); for Observed AUC0-24: Steady state
[9] = Human mass balance and absolute bioavailability study (NCT02390492)
[10] = test system: MDCK (Madin-Darby Canine Kidney); experiment: MDCK permeability
Description: as §1

MDCK permeability = settings: dog, MDCK
Description: as §1

[11] = Biliary excretion of unchanged ipatasertib; assay type: in vivo; settings: rats and monkeys dosed with 10 mg/kg and 5 mg/kg
Description: (§3) This is due to the difficulty in differentiating between the inhibition and induction from the clinical data and that the PBPK model parameters were optimized to represent a net inhibition effect.

[12] = Solubility of ipatasertib; assay type: physicochemical; settings: across the pH range of 1.1–7.0
Description: as §1

CYP3A4 [13] = target: T1, CYP3A4; experiment: Clinical study: ipatasertib 300 mg QD with palbociclib (NCT04060862); settings: in vivo
[14] = male, human, in vivo, iv
P-glycoprotein (P-gp) = P-glycoprotein (P-gp) (Homo sapiens, UniProt P08183); experiment: In vitro P-glycoprotein substrate assessment; assay type: in vitro ADME
Description: as §3

[15] = cited from earlier work; remark: listed apart in the source
clinical = settings: human, in vivo, po, 200 mg
[16] = Physicochemical parameters (LogP, pKa, compound type; in-house data)
Description: as §1

CYP3A4 [17] = experiment: In vitro CYP3A4 induction; assay type: in vitro ADME
Description: as §3

CYP3A4 [18] = target: T1, CYP3A4; experiment: PBPK simulation: midazolam with ipatasertib 600 mg QD
Experimental: as §2
Therefore, sensitivity analyses of inhibitory parameters, where only one parameter (Ki or Kinact) varied at a time, were performed for all three models described above.

CYP3A4 [19] = target: T1, CYP3A4; settings: cited from earlier work; for AUC ratio Observation: midazolam AUC0–∞ with/without ipatasertib 600 mg QD; for AUC ratio Observation / Cmax ratio Observation: geometric mean ratio (90% CI); for Cmax ratio Observation: midazolam Cmax with/without ipatasertib 600 mg QD
[20] = palbociclib PBPK model input; cited from earlier work
CYP3A4 [21] = target: T1, CYP3A4; experiment: clinical; settings: female, in vivo, 125 mg
[22] = enzalutamide 160 mg QD with ipatasertib, clinical observation, geometric mean (CV%)

T1 sequence (P08684 whole entry): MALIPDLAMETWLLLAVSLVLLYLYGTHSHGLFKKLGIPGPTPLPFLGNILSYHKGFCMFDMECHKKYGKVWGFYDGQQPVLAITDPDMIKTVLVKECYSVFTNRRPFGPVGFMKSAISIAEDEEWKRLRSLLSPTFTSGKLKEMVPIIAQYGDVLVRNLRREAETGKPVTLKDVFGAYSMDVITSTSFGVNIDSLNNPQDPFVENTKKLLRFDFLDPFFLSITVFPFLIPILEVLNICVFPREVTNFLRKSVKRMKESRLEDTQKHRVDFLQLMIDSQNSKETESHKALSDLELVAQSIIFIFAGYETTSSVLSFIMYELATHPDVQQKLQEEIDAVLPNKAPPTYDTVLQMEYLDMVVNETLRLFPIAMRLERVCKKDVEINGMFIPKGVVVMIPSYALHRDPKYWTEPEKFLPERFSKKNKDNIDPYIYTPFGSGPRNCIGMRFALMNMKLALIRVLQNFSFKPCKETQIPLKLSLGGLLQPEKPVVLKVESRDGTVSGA
Chain of P-glycoprotein (P-gp) (P08183 whole entry): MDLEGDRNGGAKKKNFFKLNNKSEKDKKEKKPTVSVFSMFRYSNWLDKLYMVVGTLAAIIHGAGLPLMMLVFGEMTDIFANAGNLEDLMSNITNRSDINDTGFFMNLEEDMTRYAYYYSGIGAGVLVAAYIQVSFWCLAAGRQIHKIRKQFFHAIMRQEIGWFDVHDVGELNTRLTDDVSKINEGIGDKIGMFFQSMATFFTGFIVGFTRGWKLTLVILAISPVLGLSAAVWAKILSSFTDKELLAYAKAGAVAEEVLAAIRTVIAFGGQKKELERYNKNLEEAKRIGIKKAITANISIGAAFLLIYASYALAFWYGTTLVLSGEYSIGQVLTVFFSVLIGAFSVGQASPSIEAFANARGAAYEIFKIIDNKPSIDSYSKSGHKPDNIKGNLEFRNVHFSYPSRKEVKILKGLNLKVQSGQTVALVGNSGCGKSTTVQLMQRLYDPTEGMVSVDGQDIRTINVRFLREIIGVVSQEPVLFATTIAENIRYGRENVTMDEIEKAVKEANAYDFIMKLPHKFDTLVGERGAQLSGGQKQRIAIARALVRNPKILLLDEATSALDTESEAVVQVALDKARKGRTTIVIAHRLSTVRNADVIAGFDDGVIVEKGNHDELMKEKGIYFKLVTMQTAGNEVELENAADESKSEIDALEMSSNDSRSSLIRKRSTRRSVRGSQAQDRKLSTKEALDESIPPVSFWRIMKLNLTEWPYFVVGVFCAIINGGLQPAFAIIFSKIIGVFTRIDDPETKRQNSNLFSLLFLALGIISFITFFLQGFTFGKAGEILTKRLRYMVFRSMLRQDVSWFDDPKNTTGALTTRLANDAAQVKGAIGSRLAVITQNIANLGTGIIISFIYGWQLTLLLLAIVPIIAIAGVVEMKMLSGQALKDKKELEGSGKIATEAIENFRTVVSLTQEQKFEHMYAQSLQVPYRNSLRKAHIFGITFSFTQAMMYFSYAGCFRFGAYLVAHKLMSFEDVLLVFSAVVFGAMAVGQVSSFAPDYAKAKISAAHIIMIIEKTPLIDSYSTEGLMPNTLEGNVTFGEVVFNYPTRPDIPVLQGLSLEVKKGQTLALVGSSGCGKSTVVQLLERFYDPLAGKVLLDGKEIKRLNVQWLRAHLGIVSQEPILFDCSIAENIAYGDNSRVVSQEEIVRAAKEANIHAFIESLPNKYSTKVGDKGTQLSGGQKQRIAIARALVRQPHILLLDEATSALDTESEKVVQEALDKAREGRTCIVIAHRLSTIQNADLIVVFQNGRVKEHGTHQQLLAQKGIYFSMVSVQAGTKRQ

Structure (SMILES): CNC(=O)c1ccc(N2C(=S)N(c3ccc(C#N)c(C(F)(F)F)c3)C(=O)C2(C)C)cc1F [Enzalutamide]
- fu, plasma ([1]; enzalutamide PBPK model input): 0.024
- Observed AUCss (CYP3A4 [2]; [22]): 341 (25%) µg*hr/ml
- Observed Cmax (CYP3A4 [2]; [22]): 17 (22%) µg/ml
- CLpo ([3]; enzalutamide, in vivo clearance): 0.54 L/h
- Caco-2 permeability (Caco-2): 31 10^-6 cm/s
- Ind max (CYP3A4 induction) (CYP3A4 [4]; enzalutamide PBPK model input): 8
- EC50 (CYP3A4 [4]; enzalutamide PBPK model input, read-out: Ind C50 (CYP3A4 induction)): 2.5 µM
- Ki (CYP3A4 [4]; enzalutamide PBPK model input, read-out: Ki (CYP3A4 competitive inhibition)): 42 µM

Structure (SMILES): CC(C)NC[C@@H](C(=O)N1CCN(c2ncnc3c2[C@H](C)C[C@H]3O)CC1)c1ccc(Cl)cc1 [Ipatasertib]
- AUC Observation (CYP3A4 [5]; ipatasertib AUC0–∞, geometric mean (CV%)): 327 (26.4%) ng* h/ml
- Cmax Observation (CYP3A4 [5]; ipatasertib Cmax, geometric mean (CV%)): 44.9 (35.9%) ng/ml
- Tmax Observation (CYP3A4 [5]; ipatasertib Tmax, median (range)): 1.07 (0.50–3.03) h
- fraction unbound [6]: 0.63
- CYP3A4 substrate/inhibitor status (CYP3A4 [7]): a substrate and a competitive and time-dependent inhibitor (TDI) of CYP3A4
- Kapp (CYP3A4 time-dependent inhibition) (CYP3A4 [7]): 9.66 µM
- observed decrease in ipatasertib Cmax (CYP3A4 [2]; in the presence of enzalutamide, patients with prostate cancer): ~53%
- AUC Observation (CYP3A4 [2]; ipatasertib AUC0–24 h, ipatasertib 400 mg QD with and without enzalutamide 160 mg QD, geometric mean (CV%)): 2170 (53.8%) ng* h/ml
- Cmax Observation (CYP3A4 [2]; ipatasertib Cmax, ipatasertib 400 mg QD with and without enzalutamide 160 mg QD, patients with prostate cancer, geometric mean (CV%)): 284 (66.5%) ng/ml
- Tmax Observation (CYP3A4 [2]; ipatasertib Tmax, ipatasertib 400 mg QD with and without enzalutamide 160 mg QD, median (range)): 1.85 (0.63–4.00) h
- dose proportionality of exposure ([8]; 200 to 800 mg, single dose or multiple doses): approximately dose-proportional
- Observed AUC0-∞ ([8]; Day 1, 25 mg oral (n=3)): 34.0 (107%) ng*hr/ml
- Observed AUC0-∞ ([8]; Day 1, 50 mg oral (n=3)): 84.6 (50.1%) ng*hr/ml
- Observed AUC0-∞ ([8]; Day 1, 100 mg oral (n=3)): 365 (21.5%) ng*hr/ml
- Observed AUC0-∞ ([8]; Day 1, 200 mg oral (n=3)): 999 (21.2%) ng*hr/ml
- Observed AUC0-∞ ([8]; Day 1, 400 mg oral (n=3)): 2230 (14.1%) ng*hr/ml
- Observed AUC0-∞ ([8]; Day 1, 600 mg oral (n=7)): 3460 (36.4%) ng*hr/ml
- Observed AUC0-∞ ([8]; Day 1, 800 mg oral (n=7)): 4100 (68.6%) ng*hr/ml
- Observed AUC0-24 ([8]; 25 mg (n=3)): 88.3 (77.8%) ng*hr/ml
- Observed AUC0-24 ([8]; 50 mg (n=3)): 171 (11%) ng*hr/ml
- Observed AUC0-24 ([8]; 200 mg (n=3)): 1770 (14.6%) ng*hr/ml
- Observed AUC0-24 ([8]; 400 mg (n=3)): 3210 (22.3%) ng*hr/ml
- Observed AUC0-24 ([8]; 600 mg (n=7)): 4450 (43.8%) ng*hr/ml
- Observed AUC0-24 ([8]; 800 mg (n=7)): 6670 (66.1%) ng*hr/ml
- dose proportionality of exposure ([8]; low doses of 25–50 mg): more than dose-proportional increase in exposures
- Vd ([9]; human, in vivo, intravenous, 0.08 mg): 39.1 L/kg
- bioavailability ([9]; human, in vivo, oral, 200 mg): 34%
- unchanged drug eliminated in urine ([9]; single 200 mg oral dose): ~8%
- permeability (in words) [10]: moderate permeability
- Papp (MDCK permeability): 3.55 ×10⁻⁶ cm/s
- unchanged drug found in bile [11]: 2.9–5.8%
- solubility [12]: > 10000 µg/mL
- AUC (CYP3A4 [13]): 2510 ng·h/mL
- Cmax (CYP3A4 [13]): 314 ng/mL
- Tmax (CYP3A4 [13]): 1.5 h
- CLiv [14]: 100 L/h
- P-gp substrate status (P-glycoprotein (P-gp)): substrate of P-glycoprotein (P-gp)
- effect of food on exposures [15]: Food does not affect exposures
- CL renal (clinical): 322 mL/min
- Compound type [16]: Diprotic base
- logP [16]: 3
- pKa ([16]; read-out: pKa1): 9
- pKa ([16]; read-out: pKa2): 4.9
- CYP3A4 induction in vitro (CYP3A4 [17]): weak CYP3A4 inducer in vitro

Structure (SMILES): Cc1ncc2n1-c1ccc(Cl)cc1C(c1ccccc1F)=NC2 [Midazolam]
- AUC P/O (CYP3A4 [18]; predicted/observed midazolam AUC0–∞, midazolam 2 mg with and without ipatasertib 600 mg QD): 0.59
- AUC ratio P/O (CYP3A4 [18]; predicted/observed midazolam AUC ratio, ipatasertib 600 mg QD): 1.00
- Cmax ratio P/O (CYP3A4 [18]; predicted/observed midazolam Cmax ratio, ipatasertib 600 mg QD): 1.33
- Papp (MDCK permeability): 18.8 ×10⁻⁶ cm/s
- AUC ratio Observation (CYP3A4 [19]): 2.22 (1.57–3.12)
- AUC ratio Observation (CYP3A4 [19]; listed as midazolam): 2.22
- AUC Observation (CYP3A4 [19]; midazolam AUC0–∞, midazolam 2 mg single oral dose with and without ipatasertib 600 mg QD, geometric mean (CV%)): 39.3 (58.4%) ng* h/ml
- Cmax ratio Observation (CYP3A4 [19]): 1.29 (0.97–1.71)
- Cmax ratio Observation (CYP3A4 [19]; listed as midazolam): 1.29
- Cmax Observation (CYP3A4 [19]; midazolam Cmax, midazolam 2 mg single oral dose with and without ipatasertib 600 mg QD, geometric mean (CV%)): 15.0 (51.6%) ng/ml
- Tmax Observation (CYP3A4 [19]; midazolam Tmax, midazolam 2 mg single oral dose with and without ipatasertib 600 mg QD, median (range)): 0.50 (0.50–1.00) h

Structure (SMILES): CC(=O)c1c(C)c2cnc(Nc3ccc(N4CCNCC4)cn3)nc2n(C2CCCC2)c1=O [Palbociclib]
- fu, plasma ([1]; palbociclib PBPK model input): 0.147
- logP [20]: 0.99
- CLR ([3]; palbociclib PBPK model input): 6.6 L/h
- Fa ([3]; palbociclib PBPK model input): 0.85
- Ka ([3]; palbociclib PBPK model input): 0.12 h⁻¹
- Vss ([3]; palbociclib PBPK model input): 14.558 L/kg
- AUC (CYP3A4 [21]): 2560 ng·h/mL
- Cmax (CYP3A4 [21]): 123 ng/mL
- Kapp (CYP3A4 time-dependent inhibition) (CYP3A4 [4]; palbociclib PBPK model input): 10 µM

Structure (SMILES): CN/C(=N/CCSCc1nc[nH]c1C)NC#N [cimetidine]
- Papp (MDCK permeability): 1 ×10⁻⁶ cm/s

Structure (SMILES): COCCc1ccc(OCC(O)CNC(C)C)cc1 (stereo not drawn) [metoprolol]
- Papp (MDCK permeability): 24.8 ×10⁻⁶ cm/s

Structure (SMILES): CC(C)NCC(O)COc1cccc2ccccc12 (stereo not drawn) [propranolol]
- Papp (MDCK permeability): 20.9 ×10⁻⁶ cm/s

From article PMC9054915 (Cancer Chemotherapy and Pharmacology, 2022)
